# Source: patent publication US20260083126A1, “ANTIMICROBIAL COMPOSITIONS” (AHV International B.V., priority 2022, published 2026)
# Where two headings read alike, the source gives them in different places.
# Assays:
# Assay in all cases: MIC assay
# Format in all cases: cell-based
# [1] = test system: Acinetobacter baumanni RUH875; details: for MIC90 / MIC50: Acinetobacter
# Method: (§1) The exact weighed amount was noted and the volume of solvent to reach a 80 mM dilution calculated. Half of the volume was added first, by adding Tween 80 and let stand for 5 minutes. In a second step, the other half of the volume DMSO was added and resuspended to help the dilution process. The closed tube was inverted 5-10 times and then vortexed very thoroughly for at least 30 seconds. If after this procedure crystals were still visible, the tube was placed in a shaker at 37° C. at 150 rpm for at least 30 minutes (it is indicated if the dissolution period was longer than 2 h). […] In case of Bis(4-Chlorophenyl) thiosulfonate, a lower concentrated stock solution of 2 mM needed to be prepared. For that, the required amount of compound was weighed in and 2% v/v Tween80 and 2% v/v DMSO of the end volume of the stock solution was added to the substance. This mix was heated in a water bath set to 40° C. and occasionally shaken. When the whole amount of the substance reached dissolution, the volume was filled up with growth medium until the end volume. This 2 mM stock solution of Bis(4-Chlorophenyl) thiosulfonate was used in the MIC plate and diluted two-fold, resulting in a testing range of Bis(4-Chlorophenyl) thiosulfonate from 1 mM to 0.002 mM.
# (§2) The microorganisms as indicated in Table 4 were used to inoculate a tryptic soy agar (TSA) plate and incubated overnight at 37° C. After incubation 3-5 well-isolated colonies with the same morphology were selected from the TSA plate and resuspended in 2 mL 0.9% saline solution with 3-6 glass beads and vortexed. The optical density at 600 nm (OD600) of the bacterial suspension was measured with a spectrophotometer (Evolution™ 201/220 UV-Visible Spectrophotometer, Thermo Fisher Scientific) and diluted to an OD600 of 0.0008, which resembles 10^6 CFU/mL.
# (§3) The MIC assay was performed in a flat-bottom 96-microtiter plate. 50 μL of MHB-II was added into columns 2-11, and 100 μL to column 12 for sterility control. 100 μL of the 8 mM test compound solution (method 1) was added to column 1. A two-fold dilution series of the solution in MHB-II was achieved by resuspending 50 μL of the 8 mM solution from column 1 to column 2. This step was repeated until column 10. The respective concentration of Tween 80 and DMSO in column 1 was 2.5%, which is two-fold diluted throughout the plate. 50 μL of the bacterial suspension was added to column 1-11. The microtiter plates were sealed with adhesive polyethylene film for sealing microplates (Diversified Biotech) and incubated for 24 h at 37° C. After incubation the OD was measured at 600 nm with the Varioskan (Thermo Fisher Scientific). The minimal concentration which causes reduction of final OD600 of the bacterial culture by 50% (MIC50) and by 90% (MIC90) was calculated after normalization of the obtained OD values to the growth control in column 11. This assay was repeated three times in three independent experiments.
# (§4) Hereafter, the stock solutions of the compounds were used in three repetitions in a minimal inhibitory concentration (MIC) assay at a 2-fold dilution range with various bacteria from the gram-positive and gram-negative group and a yeast, Candida albicans. The concentrations that show only less than 10% growth after 24 h were considered the MIC90-values, whereas the concentrations that show 50% growth after 24 h when compared to the bacterial growth control were considered the MIC50-values. Escherichia coli and Staphylococcus aureus were used as representatives for a gram-negative bacteria and gram-positive bacteria, respectively. Furthermore, the yeast C. albicans was also tested.
# (§5) In an Eppendorf tube between 10-20 mg of the test compound was weighed. Hereafter, the required amount of Tween 80 was added, followed by the amount DMSO. After vigorous shaking, the dissolved and transparent dilutions were diluted 10 times with Mueller Hinton Broth (MHB) for the MIC assay. […]
# [2] = test system: Escherichia coli ATCC 25922; details: for MIC50 / MIC90: Escherichia coli, ATCC25922
# Method: as §1, §2, §3, §4, §5
# [3] = test system: Klebsiella pneumoniae ATCC 13883; details: for MIC50 / MIC90: Klebsiella pneumoniae, ATCC13883; for MIC50 / MIC90 / MIC50 Klebsiella pneumoniae / MIC90 Klebsiella pneumoniae: Example 2a, n = 3, ATCC 13883
# Method: as §1, §2, §3, §4, §5
# [4] = test system: Streptococcus Suis Type 2 21-018358-002; details: for MIC50 / MIC90: Streptococcus suis
# Method: as §1, §2, §3, §4, §5
# [5] = test system: Streptococcus agalactiae ATCC 13813; details: for MIC50 / MIC90: Streptococcus agalactiae, ATCC13813
# Method: as §1, §2, §3, §4, §5
# [6] = RUH875, Example 2b, FIG. 1, no MIC90 detected in the tested range, read-out: Average MIC90 A. baumanni (Ab)
# [7] = Example 2a, n = 3, RUH875, read-out: MIC90 Acinetobacter baumanni
# [8] = Example 2a, n = 3, ATCC 25922, read-out: MIC90 Escherichia coli
# [9] = Example 2b, FIG. 1, no MIC90 detected in the tested range, read-out: Average MIC90 E. coli (Ec)
# [10] = Example 2a, n = 3, 21-018358-002
# [11] = Example 2a, n = 3, 21-018358-002, read-out: MIC90 Streptococcus Suis Type 2 (+)
# [12] = Example 2a, n = 3, ATCC 13813, read-out: MIC90 Streptococcus agalactiae (+)
"MIC50 Acinetobacter baumanni ([1]; Example 2a, n = 3, RUH875)","MIC90 Acinetobacter baumanni ([1]; Example 2a, n = 3, RUH875)","MIC50 Escherichia coli ([2]; Example 2a, n = 3, ATCC 25922)","MIC90 Escherichia coli ([2]; Example 2a, n = 3, ATCC 25922)",MIC50 Klebsiella pneumoniae [3],MIC90 Klebsiella pneumoniae [3],"MIC50 Streptococcus Suis Type 2 (+) [4, 10]","MIC90 Streptococcus Suis Type 2 (+) [4, 10]","MIC50 Streptococcus agalactiae (+) ([5]; Example 2a, n = 3, ATCC 13813)","MIC90 Streptococcus agalactiae (+) ([5]; Example 2a, n = 3, ATCC 13813)",SMILES,"MIC90 [1, 6]","MIC50 ([1]; Example 2a, n = 3, RUH875)","MIC90 [1, 7]","MIC50 ([2]; Example 2a, n = 3, ATCC 25922)","MIC90 [2, 8]","MIC90 [2, 9]",MIC50 [3],MIC90 [3],"MIC50 [4, 10]","MIC90 [4, 11]",also measured
,,,,,,,,,,"Clc1ccc(SSc2ccc(Cl)cc2)cc1 [Bis (4-chlorophenyl) disulfide, Bis(4-chlorophenyl) disulfide]",> 1000 µM,> 4000 µM,> 4000 µM,> 4000 µM,> 4000 µM,> 1000 µM,> 4000 µM,> 4000 µM,60 µM,50 µM,"MIC90 ([4]; Example 2b, FIG. 1, no MIC90 detected in the tested range, read-out: Average MIC90 S. suis (Ss)): > 1000 µM; MIC50 ([5]; Example 2a, n = 3, ATCC 13813): 10 µM; MIC90 [5, 12]: 70 µM; MIC90 ([5]; Example 2b, FIG. 1, no MIC90 detected in the tested range, read-out: Average MIC90 S. agalactiae (Sag)): > 1000 µM"
,,,,,,,,,,"Fc1ccc(SSc2ccc(F)cc2)cc1 [Bis (4-fluorophenyl) disulfide, Bis(4-fluorophenyl) disulfide]",> 4000 µM,3000 µM,> 4000 µM,1250 µM,> 4000 µM,> 4000 µM,> 4000 µM,> 4000 µM,380 µM,1670 µM,"Average MIC90 K. pneumoniae (Kp) ([3]; Example 2b, FIG. 1, no MIC90 detected in the tested range): above 4000 μM; MIC50 ([5]; Example 2a, n = 3, ATCC 13813): 210 µM; MIC90 [5, 12]: 500 µM"
2000 µM,>4000 µM,1000 µM,>4000 µM,2500 µM,>4000 µM,380 µM,830 µM,1040 µM,1670 µM,"[O-][S+](Sc1ccc(F)cc1)c1ccc(F)cc1 (stereo not drawn) [Bis (4-fluorophenyl) thiosulfinate, Bis(4-fluorophenyl) thiosulfinate]",,,,,,,,,,,
2830 µM,>4000 µM,1500 µM,>4000 µM,>4000 µM,>4000 µM,750 µM,880 µM,1330 µM,1670 µM,"O=S(=O)(Sc1ccc(F)cc1)c1ccc(F)cc1 [Bis (4-fluorophenyl) thiosulfonate, Bis(4-fluorophenyl) thiosulfonate]",,,,,,,,,,,

SMILES,"MIC50 Acinetobacter baumanni ([1]; Example 2a, n = 3, RUH875)","MIC90 Acinetobacter baumanni ([1]; Example 2a, n = 3, RUH875)","MIC50 Escherichia coli ([2]; Example 2a, n = 3, ATCC 25922)","MIC90 Escherichia coli ([2]; Example 2a, n = 3, ATCC 25922)",MIC50 Klebsiella pneumoniae [3],MIC90 Klebsiella pneumoniae [3],"MIC50 Streptococcus Suis Type 2 (+) [4, 10]","MIC90 Streptococcus Suis Type 2 (+) [4, 10]","MIC50 Streptococcus agalactiae (+) ([5]; Example 2a, n = 3, ATCC 13813)","MIC90 Streptococcus agalactiae (+) ([5]; Example 2a, n = 3, ATCC 13813)","MIC90 [1, 6]","MIC50 ([1]; Example 2a, n = 3, RUH875)","MIC90 [1, 7]","MIC50 ([2]; Example 2a, n = 3, ATCC 25922)","MIC90 [2, 8]","MIC90 [2, 9]",MIC50 [3],MIC90 [3],"MIC50 [4, 10]","MIC90 [4, 11]",also measured
"O=S(=O)(Sc1ccc(Cl)cc1)c1ccc(Cl)cc1 [Bis (4-chlorophenyl) thiosulfonate, Bis(4-chlorophenyl) thiosulfonate]",>1000 µM,>1000 µM,>1000 µM,>1000 µM,>1000 µM,>1000 µM,130 µM,370 µM,160 µM,500 µM,,,,,,,,,,,
